Common to all, as to assay type: biochemical
One assay deals with T1, JAK1 (Homo sapiens, UniProt P23458).
T1 construct: purchased Invitrogen Corporation, Carlsbad, Calif; PV4775
Description: JAK1 Inhibition Assay (Omnia kinase fluorescence peptide substrate assay). The settings on record: averaged IC50 ranges; assay of Example B; 40 μM (Km app) or 1 mM ATP, 15 nM JAK1.

A further assay concerns the target T2, Human Tyk2 kinase domain (Homo sapiens, UniProt P29597).
T2 construct: comprising amino acids 886 to 1187 with 10 additional histidine residues; 10xHis (histidine tag) (C, cleaved yes); made in house
T2 sequence (P29597 886-1187): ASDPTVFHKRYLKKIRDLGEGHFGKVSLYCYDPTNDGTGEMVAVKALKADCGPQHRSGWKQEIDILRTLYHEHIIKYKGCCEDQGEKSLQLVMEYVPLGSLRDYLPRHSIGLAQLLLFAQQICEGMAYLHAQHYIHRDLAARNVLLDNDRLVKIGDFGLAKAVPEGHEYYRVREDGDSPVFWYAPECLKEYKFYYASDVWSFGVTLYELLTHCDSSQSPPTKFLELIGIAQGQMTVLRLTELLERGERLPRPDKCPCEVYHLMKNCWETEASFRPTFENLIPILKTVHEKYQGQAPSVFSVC
The assay can be described thus: Tyk2 Inhibition Assay (Omnia kinase fluorescence peptide substrate assay). As to conditions: averaged IC50 ranges; assay of Example A; 10 μM (Km app) or 1 mM ATP, 2 nM Tyk2. In short, it runs like this: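 2 nM His-tag-cleaved kinase domain (aa 886–1187) with 8 μM Omnia Y12 peptide, 10 μM (Km app) or 1 mM ATP, pH 7.4 HEPES/10 mM MgCl2, 2% DMSO. Fluorescence (ex 360/em 485 nm) every 50 s for 45 min; IC50 from 4-parameter fit of POC, top dose 10 μM.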

The target of another assay is T3, JAK3 (Homo sapiens, UniProt P52333).
T3 construct: purchased Invitrogen Corporation, Carlsbad, Calif; PV4080
T3 sequence (P52333 1-1124): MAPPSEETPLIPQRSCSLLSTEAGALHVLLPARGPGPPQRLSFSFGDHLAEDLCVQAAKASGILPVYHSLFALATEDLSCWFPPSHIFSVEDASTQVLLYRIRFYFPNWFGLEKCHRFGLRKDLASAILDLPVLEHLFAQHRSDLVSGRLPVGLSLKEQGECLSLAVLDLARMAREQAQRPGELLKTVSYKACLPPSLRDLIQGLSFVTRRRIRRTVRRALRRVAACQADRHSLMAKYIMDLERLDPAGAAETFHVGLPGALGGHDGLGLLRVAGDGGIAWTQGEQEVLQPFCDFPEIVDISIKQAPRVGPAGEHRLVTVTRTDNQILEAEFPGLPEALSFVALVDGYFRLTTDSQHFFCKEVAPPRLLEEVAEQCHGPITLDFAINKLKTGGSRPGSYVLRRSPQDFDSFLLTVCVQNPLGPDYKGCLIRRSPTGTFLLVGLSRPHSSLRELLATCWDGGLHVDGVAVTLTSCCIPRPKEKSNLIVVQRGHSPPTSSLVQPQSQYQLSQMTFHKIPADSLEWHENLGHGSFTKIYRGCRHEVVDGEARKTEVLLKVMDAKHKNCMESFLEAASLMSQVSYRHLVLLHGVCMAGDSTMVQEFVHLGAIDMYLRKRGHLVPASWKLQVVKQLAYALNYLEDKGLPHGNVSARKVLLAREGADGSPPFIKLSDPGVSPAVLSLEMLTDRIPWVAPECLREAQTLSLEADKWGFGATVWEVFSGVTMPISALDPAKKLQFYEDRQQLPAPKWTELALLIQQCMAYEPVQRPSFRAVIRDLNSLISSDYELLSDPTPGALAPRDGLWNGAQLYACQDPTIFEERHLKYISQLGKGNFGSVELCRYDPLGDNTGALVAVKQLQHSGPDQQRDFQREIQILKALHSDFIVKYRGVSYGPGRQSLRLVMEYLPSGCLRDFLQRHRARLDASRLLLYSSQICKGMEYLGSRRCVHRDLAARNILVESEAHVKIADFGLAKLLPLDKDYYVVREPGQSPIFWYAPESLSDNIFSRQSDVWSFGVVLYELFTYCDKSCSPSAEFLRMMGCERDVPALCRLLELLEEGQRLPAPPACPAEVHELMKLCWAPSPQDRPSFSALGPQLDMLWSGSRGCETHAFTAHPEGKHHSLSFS
Description: JAK3 Inhibition Assay (Omnia kinase fluorescence peptide substrate assay). The settings on record: averaged IC50 ranges; assay of Example D; 10 μM (Km app) or 1 mM ATP, 2.5 nM JAK3. In short, it runs like this:
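Kinase at 2.5 nM with 10 µM Omnia Y7 peptide and 10 µM (Km app) or 1 mM ATP in 25 mM HEPES pH 7.4, 10 mM MgCl2, 1 mM DTT, 0.01% Triton X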

The next assay has as its target T4, JAK2 (Homo sapiens, UniProt O60674).
T4 construct: purchased Invitrogen Corporation, Carlsbad, Calif; PV4288
Description: JAK2 Inhibition Assay (Omnia kinase fluorescence peptide substrate assay). The settings on record: averaged IC50 ranges; assay of Example C; 25 μM (Km app) or 1 mM ATP, 5 nM JAK2. In outline: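 A 10-point, 3-fold compound series (top 10 μM, 2% DMSO) was tested against 5 nM JAK2 with 10 μM Omnia Y7 substrate and either 1 mM or 25 μM (Km app) ATP. Buffer: pH 7.4 HEPES, MgCl2, Triton X-100, DTT. Sox fluorescence was monitored kinetically for 45 min; IC50 is the concentration giving 50 POC on a 4-parameter fit.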

Each structure is given as a SMILES string.

A word on the IC50: it is the midpoint of a concentration-inhibition curve. The low end stands for greater potency in that assay, the high end for weaker potency in that assay.

T4 sequence (O60674 whole entry): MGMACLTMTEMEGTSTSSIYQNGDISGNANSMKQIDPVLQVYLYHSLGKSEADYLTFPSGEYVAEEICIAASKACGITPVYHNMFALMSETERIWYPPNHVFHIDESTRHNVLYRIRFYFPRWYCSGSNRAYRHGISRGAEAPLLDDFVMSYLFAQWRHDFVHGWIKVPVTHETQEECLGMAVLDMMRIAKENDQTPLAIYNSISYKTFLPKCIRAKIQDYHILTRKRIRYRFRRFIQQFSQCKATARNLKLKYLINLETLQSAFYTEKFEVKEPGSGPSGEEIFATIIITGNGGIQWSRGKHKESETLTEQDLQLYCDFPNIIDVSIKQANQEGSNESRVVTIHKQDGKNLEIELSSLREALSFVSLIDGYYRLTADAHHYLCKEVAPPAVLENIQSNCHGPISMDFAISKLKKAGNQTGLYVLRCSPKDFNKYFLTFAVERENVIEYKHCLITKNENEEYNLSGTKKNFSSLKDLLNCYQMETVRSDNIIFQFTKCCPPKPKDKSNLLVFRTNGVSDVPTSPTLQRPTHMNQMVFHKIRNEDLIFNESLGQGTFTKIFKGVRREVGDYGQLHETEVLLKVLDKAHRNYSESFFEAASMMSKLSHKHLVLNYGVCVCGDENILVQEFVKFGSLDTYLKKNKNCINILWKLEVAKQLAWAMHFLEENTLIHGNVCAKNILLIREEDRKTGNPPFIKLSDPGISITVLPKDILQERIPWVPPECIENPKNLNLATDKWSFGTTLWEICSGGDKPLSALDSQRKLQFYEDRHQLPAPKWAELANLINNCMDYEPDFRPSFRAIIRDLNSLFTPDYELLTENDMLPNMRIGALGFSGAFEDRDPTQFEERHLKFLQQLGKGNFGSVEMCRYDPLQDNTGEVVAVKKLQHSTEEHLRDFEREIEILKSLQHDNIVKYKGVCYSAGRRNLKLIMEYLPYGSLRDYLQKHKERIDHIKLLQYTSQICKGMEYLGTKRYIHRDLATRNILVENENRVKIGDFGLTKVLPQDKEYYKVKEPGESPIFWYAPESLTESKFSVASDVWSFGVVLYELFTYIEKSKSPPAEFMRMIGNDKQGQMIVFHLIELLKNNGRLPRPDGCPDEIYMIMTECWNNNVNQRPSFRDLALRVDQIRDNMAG
T1 sequence (P23458 whole entry): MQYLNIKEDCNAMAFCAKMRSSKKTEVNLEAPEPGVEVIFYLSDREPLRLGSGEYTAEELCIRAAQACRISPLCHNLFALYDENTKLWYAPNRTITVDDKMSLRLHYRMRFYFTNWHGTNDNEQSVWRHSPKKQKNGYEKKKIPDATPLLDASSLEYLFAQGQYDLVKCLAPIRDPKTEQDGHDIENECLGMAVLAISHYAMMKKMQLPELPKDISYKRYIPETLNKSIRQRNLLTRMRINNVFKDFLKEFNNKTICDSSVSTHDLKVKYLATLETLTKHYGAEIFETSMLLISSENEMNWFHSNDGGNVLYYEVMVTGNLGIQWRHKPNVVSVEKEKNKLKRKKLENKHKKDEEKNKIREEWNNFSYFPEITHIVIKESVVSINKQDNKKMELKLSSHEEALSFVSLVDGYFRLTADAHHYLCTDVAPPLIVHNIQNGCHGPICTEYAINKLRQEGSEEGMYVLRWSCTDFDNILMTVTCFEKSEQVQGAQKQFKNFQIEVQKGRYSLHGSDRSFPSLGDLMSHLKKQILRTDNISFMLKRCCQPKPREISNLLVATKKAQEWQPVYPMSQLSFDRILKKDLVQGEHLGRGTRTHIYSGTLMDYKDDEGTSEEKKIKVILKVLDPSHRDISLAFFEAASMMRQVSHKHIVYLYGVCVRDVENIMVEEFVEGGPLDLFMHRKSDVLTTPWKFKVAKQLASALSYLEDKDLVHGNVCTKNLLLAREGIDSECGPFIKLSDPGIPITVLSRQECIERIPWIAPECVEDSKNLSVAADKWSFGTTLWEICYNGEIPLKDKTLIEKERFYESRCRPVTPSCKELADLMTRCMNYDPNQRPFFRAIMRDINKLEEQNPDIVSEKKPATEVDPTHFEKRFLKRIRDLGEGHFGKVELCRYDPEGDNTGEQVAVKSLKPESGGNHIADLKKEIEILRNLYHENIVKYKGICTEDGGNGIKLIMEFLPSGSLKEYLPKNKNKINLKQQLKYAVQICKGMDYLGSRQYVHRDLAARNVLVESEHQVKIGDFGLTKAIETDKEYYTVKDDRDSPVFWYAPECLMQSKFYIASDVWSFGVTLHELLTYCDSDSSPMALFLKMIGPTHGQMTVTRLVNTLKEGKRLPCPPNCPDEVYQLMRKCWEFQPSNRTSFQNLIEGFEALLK

On to `CN1CCn2c(-c3cc4nccn4c(-c4cnn(C(CC#N)C5CC5)c4)n3)cnc2C1` (stereo not drawn) [Example 57, 3-cyclopropyl-3-(4-(7-(7-methyl-5,6,7,8-tetrahydroimidazo[1,2-a]pyrazin-3-yl)imidazo[1,2-c]pyrimidin-5-yl)-1H-pyrazol-1-yl)propanenitrile], for which the IC50 against JAK1 is 100 to 1000 nM; on Human Tyk2 kinase domain, 10 to 100 nM; against JAK3 it was greater than 1000 nM; against JAK2, 100 to 1000 nM.

For the molecule `CCN1CCC(CC#N)(n2cc(-c3nc(-c4cnn(C)c4)cc4nccn34)cn2)CC1` [Example 29, 2-(1-ethyl-4-(4-(7-(1-methyl-1H-pyrazol-4-yl)imidazo[1,2-c]pyrimidin-5-yl)-1H-pyrazol-1-yl)piperidin-4-yl)acetonitrile], the half-inhibitory concentration (IC50) against JAK1 was greater than 1000 nM; at Human Tyk2 kinase domain, 100 to 1000 nM; against JAK3, greater than 1000 nM; on JAK2, greater than 1000 nM.

For the molecule `Cn1cc(-c2cc3nccn3c(-c3cnn(C4(CC#N)CN(CCF)C4)c3)n2)cn1` [Example 77, 2-(1-(2-fluoroethyl)-3-(4-(7-(1-methyl-1H-pyrazol-4-yl)imidazo[1,2-c]pyrimidin-5-yl)-1H-pyrazol-1-yl)azetidin-3-yl)acetonitrile], the IC50 on JAK1 was 100 to 1000 nM; on Human Tyk2 kinase domain, less than 10 nM; against JAK3, greater than 1000 nM; against JAK2, 10 to 100 nM.

Take `Cn1cc(-c2cc3nccn3c(-c3cnn(C4(CC#N)CC5(COC5)C4)c3)n2)cn1` [Example 148, 2-(6-(4-(7-(1-methyl-1H-pyrazol-4-yl)imidazo[1,2-c]pyrimidin-5-yl)-1H-pyrazol-1-yl)-2-oxaspiro[3.3]heptan-6-yl)acetonitrile]: the concentration for half-maximal inhibition (IC50) was 100 to 1000 nM against JAK1, less than 10 nM on Human Tyk2 kinase domain, greater than 1000 nM against JAK3 and 10 to 100 nM against JAK2.

As to `CC(C#N)Cn1cc(-c2nc(-c3ccc(N4CCOCC4)cc3)cc3nccn23)cn1` (stereo not drawn) [Example 119, 2-methyl-3-(4-(7-(4-morpholinophenyl)imidazo[1,2-c]pyrimidin-5-yl)-1H-pyrazol-1-yl)propanenitrile], the IC50 against JAK1 lay in the range of 10 to 100 nM; against Human Tyk2 kinase domain, 10 to 100 nM; against JAK3, 100 to 1000 nM; at JAK2, 10 to 100 nM.

`N#CCC(C1CCCC1)n1cc(-c2nc(-c3ccc(N4CCOCC4)cc3)cc3nccn23)cn1` (single isomer, unassigned) [Example 114, 3-cyclopentyl-3-(4-(7-(4-morpholinophenyl)imidazo[1,2-c]pyrimidin-5-yl)-1H-pyrazol-1-yl)propanenitrile]: the IC50 on JAK1 was 100 to 1000 nM; against Human Tyk2 kinase domain, less than 10 nM; at JAK3 it was 100 to 1000 nM; against JAK2, 10 to 100 nM.

`N#CCC(C1CC1)n1cc(-c2nc(C(=O)NC3CCC3)cc3nccn23)cn1` (stereo not drawn) [Example 124, 5-(1-(2-Cyano-1-cyclopropylethyl)-1H-pyrazol-4-yl)-N-cyclobutylimidazo[1,2-c]pyrimidine-7-carboxamide]: the concentration for half-maximal inhibition (IC50) against JAK1 is greater than 1000 nM; on Human Tyk2 kinase domain, 100 to 1000 nM; on JAK3, greater than 1000 nM; on JAK2, greater than 1000 nM.

As to `Cc1ccc(-c2cc3nccn3c(-c3cnn(C(CC#N)C4CC4)c3)n2)cn1` (stereo not drawn) [Example 49, 3-Cyclopropyl-3-(4-(7-(6-methylpyridin-3-yl)imidazo[1,2-c]pyrimidin-5-yl)-1H-pyrazol-1-yl)propanenitrile], the IC50 is 100 to 1000 nM against JAK1, 10 to 100 nM on Human Tyk2 kinase domain, greater than 1000 nM against JAK3 and 100 to 1000 nM at JAK2.

Turning to `CCN1CC(CC#N)(n2cc(-c3nc(-c4cnn(C)c4)cc4nccn34)cn2)C1` [Example 72, 2-(1-ethyl-3-(4-(7-(1-methyl-1H-pyrazol-4-yl)imidazo[1,2-c]pyrimidin-5-yl)-1H-pyrazol-1-yl)azetidin-3-yl)acetonitrile], the concentration for half-maximal inhibition (IC50) against JAK1 was greater than 1000 nM; against Human Tyk2 kinase domain, 10 to 100 nM; at JAK3, greater than 1000 nM; against JAK2, 100 to 1000 nM.

Regarding `CCCS(=O)(=O)N1CC(CC#N)(n2cc(-c3nc(-c4cnn(C)c4)cc4nccn34)cn2)C1` [Example 93, 2-(3-(4-(7-(1-methyl-1H-pyrazol-4-yl)imidazo[1,2-c]pyrimidin-5-yl)-1H-pyrazol-1-yl)-1-(propylsulfonyl)azetidin-3-yl)acetonitrile], the half-maximal inhibitory concentration (IC50) against JAK1 was 100 to 1000 nM; at Human Tyk2 kinase domain, less than 10 nM; at JAK3 it was greater than 1000 nM; at JAK2, 100 to 1000 nM.

`Cn1cc(-c2cc3nccn3c(-c3cnn(C4(CC#N)CCN(CC(F)(F)F)C4)c3)n2)cn1` (stereo not drawn) [Example 135, 2-(3-(4-(7-(1-methyl-1H-pyrazol-4-yl)imidazo[1,2-c]pyrimidin-5-yl)-1H-pyrazol-1-yl)-1-(2,2,2-trifluoroethyl)pyrrolidin-3-yl)acetonitrile]: the IC50 was 100 to 1000 nM on JAK1, 10 to 100 nM against Human Tyk2 kinase domain, 100 to 1000 nM against JAK3 and 10 to 100 nM against JAK2.

As to `Cc1cc(-c2cc3nccn3c(-c3cnn(C(CC#N)C4CC4)c3)n2)ccn1` (stereo not drawn) [Example 50, 3-cyclopropyl-3-(4-(7-(2-methylpyridin-4-yl)imidazo[1,2-c]pyrimidin-5-yl)-1H-pyrazol-1-yl)propanenitrile], the IC50 against JAK1 is 100 to 1000 nM; on Human Tyk2 kinase domain, 10 to 100 nM; at JAK3, greater than 1000 nM; on JAK2, 100 to 1000 nM.

As to `Cn1cc(-c2cc3ncc(F)n3c(-c3cnn(C(CC#N)C4CC4)c3)n2)cn1` (stereo not drawn) [Example 152, 3-cyclopropyl-3-(4-(3-fluoro-7-(1-methyl-1H-pyrazol-4-yl)imidazo[1,2-c]pyrimidin-5-yl)-1H-pyrazol-1-yl)propanenitrile], the half-maximal inhibitory concentration (IC50) on JAK1 is 100 to 1000 nM; on Human Tyk2 kinase domain it was less than 10 nM; against JAK3, 100 to 1000 nM; on JAK2 it was 10 to 100 nM.

As to `CCS(=O)(=O)N1CC(CC#N)(n2cc(-c3nc(-c4cnn(C)c4)cc4nccn34)cn2)C1` [Example 97, 2-(1-(ethylsulfonyl)-3-(4-(7-(1-methyl-1H-pyrazol-4-yl)imidazo[1,2-c]pyrimidin-5-yl)-1H-pyrazol-1-yl)azetidin-3-yl)acetonitrile], the IC50 at JAK1 is 100 to 1000 nM; at Human Tyk2 kinase domain, less than 10 nM; against JAK3, greater than 1000 nM; on JAK2, 10 to 100 nM.

As to `Cn1cc(-c2cc3nccn3c(-c3cnn(C(CC#N)c4ccccc4Cl)c3)n2)cn1` (stereo not drawn) [Example 12, 3-(2-chlorophenyl)-3-(4-(7-(1-methyl-1H-pyrazol-4-yl)imidazo[1,2-c]pyrimidin-5-yl)-1H-pyrazol-1-yl)propanenitrile], the IC50 was in the range of 10 to 100 nM against JAK1, 10 to 100 nM against Human Tyk2 kinase domain, 100 to 1000 nM against JAK3 and 10 to 100 nM at JAK2.

(Values after US8962596B2 (Array BioPharma Inc., priority 2010, dated 2015).)
